Measurements reported in patent US20070116825A1, “Confection with High-Potency Sweetener” (THE COCA-COLA COMPANY, priority 2005, published 2007).

How the values were obtained:
[1] = Rate of dissolution in H2O at 25° C. of rebaudioside A polymorph and amorphous forms; type: physicochemical
Source text: The purification of rebaudioside A by crystallization as described above results in the formation of at least three different polymorphs: Form 1: a rebaudioside A hydrate; Form 2: an anhydrous rebaudioside A; Form 3: a rebaudioside A solvate. In addition to the at least three polymorph forms of rebaudioside A, the purification of rebaudioside A may result in the formation of an amorphous form of rebaudioside A, Form 4. The aqueous organic solution and temperature of the purification process influence the resulting polymorph and amorphous forms in the substantially pure rebaudioside A composition. FIGS. 1-5 are exemplary powder x-ray diffraction (XRPD) scans of the polymorph and amorphous forms of rebaudioside A: Form 1 (hydrate), Form 2 (anhydrate), Form 3A (methanol solvate), Form 3B (ethanol solvate), and Form 4 (amorphous), respectively.

[2] = type: physicochemical
Protocol: A solution of rebaudioside A (>97% pure by HPLC) was prepared in double distilled water (12.5 gm in 50 mL, 25% concentration) by stirring the mixture at 40° C. for 5 minutes. An amorphous form of rebaudioside A was formed by immediately using the clear solution for spray drying with the Lab-Plant spray drier SD-04 instrument (Lab-Plant Ltd., West Yorkshire, U.K.). The solution was fed through the feed pump into the nozzle atomizer which atomized it into a spray of droplets with the help of a constant flow of nitrogen/air. […] This dry powder (11-12 g, H2O 6.74%) was discharged continuously from the drying chamber and was collected in a bottle.

Row | Substance | Rate of dissolution in H2O at 25° C. ([1]; per 5 minutes) | Rate of dissolution in H2O at 25° C. ([1]; per 60 minutes) | solubility in water at room temperature [2] [%]
1 | rebaudioside A [Form 2] | Intermediate (<30%/ %/5 minutes |  | 
2 | rebaudioside A [Form 3] | High (>30%/5 %/5 minutes |  | 
3 | rebaudioside A [Form 1] |  | Very low (<0.2%/ %/60 minutes | 
4 | rebaudioside A [Form 4] | High (>35%/5 %/5 minutes |  | > 35.0
